ChEMBL document CHEMBL1811848 (Bioorg Med Chem Lett, 2011)

Legend:
Mus musculus [1] = experiment: Hypolipidemic activity in Swiss albino mouse assessed as reduction in triglyceride level at 0.01 mg/kg, po; type: functional; set-up: scale not given: the % may be the effect or the level left
Mus musculus [2] = experiment: Hypolipidemic activity in Swiss albino mouse assessed as reduction in triglyceride level at 0.03 mg/kg, po; type: functional; set-up: scale not given: the % may be the effect or the level left
Mus musculus [3] = organism: Mus musculus; experiment: Hypolipidemic activity in Swiss albino mouse assessed as reduction in triglyceride level; type: functional
Mus musculus [4] = experiment: Hypolipidemic activity in db/db mouse assessed as reduction in triglyceride level at 0.01 mg/kg, po; type: functional; set-up: scale not given: the % may be the effect or the level left
Mus musculus [5] = experiment: Antihyperglycemic activity in db/db mouse assessed as reduction in plasma glucose level at 0.01 mg/kg, po; type: functional; set-up: scale not given: the % may be the effect or the level left
Mus musculus [6] = experiment: Antihyperglycemic activity in db/db mouse assessed as reduction in plasma glucose level at 0.3 mg/kg, po; type: functional; set-up: scale not given: the % may be the effect or the level left
Mus musculus [7] = experiment: Antihyperglycemic activity in db/db mouse assessed as reduction in plasma glucose level at 3 mg/kg, po; type: functional; set-up: scale not given: the % may be the effect or the level left
Rattus norvegicus [8] = experiment: Toxicity in male Wistar rat assessed as heart to body weight ratio at 3 mg/kg, po measured after 28 days (reference value: 0.383 +/- 0.012); type: organism-based; set-up: dose 3 mg/kg, route oral; conditions: in vivo, 672 h
Rattus norvegicus [9] = experiment: Toxicity in male Wistar rat assessed as kidney to body weight ratio at 30 mg/kg, po measured after 28 days (reference value: 0.745 +/- 0.012); type: organism-based; set-up: dose 30 mg/kg, route oral; conditions: in vivo, 672 h
Rattus norvegicus [10] = experiment: Toxicity in male Wistar rat assessed as spleen to body weight ratio at 3 mg/kg, po measured after 28 days (reference value: 0.215 +/- 0.007); type: organism-based; set-up: dose 3 mg/kg, route oral; conditions: in vivo, 672 h
Rattus norvegicus [11] = experiment: Toxicity in male Wistar rat assessed as brain to body weight ratio at 30 mg/kg, po measured after 28 days (reference value: 0.658 +/- 0.015); type: organism-based; set-up: dose 30 mg/kg, route oral; conditions: in vivo, 672 h
Rattus norvegicus [12] = experiment: Toxicity in male Wistar rat assessed as epididymine to body weight ratio at 3 mg/kg, po measured after 28 days (reference value: 0.391 +/- 0.017); type: organism-based; set-up: dose 3 mg/kg, route oral; conditions: in vivo, 672 h
Rattus norvegicus [13] = experiment: Toxicity in male Wistar rat assessed as thymus to body weight ratio at 30 mg/kg, po measured after 28 days (reference value: 0.081 +/- 0.013); type: organism-based; set-up: dose 30 mg/kg, route oral; conditions: in vivo, 672 h
Rattus norvegicus [14] = experiment: Toxicity in female Wistar rat assessed as liver to body weight ratio at 30 mg/kg, po measured after 28 days (reference value: 3.091 +/- 0.087); type: organism-based; set-up: dose 30 mg/kg, route oral; conditions: in vivo, 672 h
Rattus norvegicus [15] = experiment: Toxicity in female Wistar rat assessed as kidney to body weight ratio at 30 mg/kg, po measured after 28 days (reference value: 0.733 +/- 0.007); type: organism-based; set-up: dose 30 mg/kg, route oral; conditions: in vivo, 672 h
Rattus norvegicus [16] = experiment: Toxicity in female Wistar rat assessed as spleen to body weight ratio at 30 mg/kg, po measured after 28 days (reference value: 0.237 +/- 0.012); type: organism-based; set-up: dose 30 mg/kg, route oral; conditions: in vivo, 672 h
Rattus norvegicus [17] = experiment: Toxicity in female Wistar rat assessed as adrenal to body weight ratio at 30 mg/kg, po measured after 28 days (reference value: 0.028 +/- 0.001); type: organism-based; set-up: dose 30 mg/kg, route oral; conditions: in vivo, 672 h
Rattus norvegicus [18] = experiment: Toxicity in female Wistar rat assessed as brain to body weight ratio at 3 mg/kg, po measured after 28 days (reference value: 0.970 +/- 0.023); type: organism-based; set-up: dose 3 mg/kg, route oral; conditions: in vivo, 672 h
Rattus norvegicus [19] = experiment: Toxicity in male Wistar rat assessed as change in body weight at 3 mg/kg, po measured after 28 days relative to control; type: organism-based; set-up: dose 3 mg/kg, route oral; conditions: in vivo, 672 h
Rattus norvegicus [20] = experiment: Toxicity in male Wistar rat assessed as creatinine level at 30 mg/kg, po measured after 28 days (reference value: 0.47 +/- 0.03 mg/dl); type: organism-based; set-up: dose 30 mg/kg, route oral; conditions: in vivo, 672 h
Rattus norvegicus [21] = experiment: Toxicity in male Wistar rat assessed as […] level at 3 mg/kg, po measured after 28 days (reference value: 243.88 +/- 20.34 U/L); type: organism-based; set-up: dose 3 mg/kg, route oral; conditions: in vivo, 672 h
Rattus norvegicus [22] = experiment: Toxicity in male Wistar rat assessed as SGOT level at 30 mg/kg, po measured after 28 days (reference value: 135.14 +/- 6.89 U/L); type: organism-based; set-up: dose 30 mg/kg, route oral; conditions: in vivo, 672 h
Rattus norvegicus [23] = experiment: Toxicity in male Wistar rat assessed as albumin level at 3 mg/kg, po measured after 28 days (reference value: 3.66 +/- 0.10 g.dl); type: organism-based; set-up: dose 3 mg/kg, route oral; conditions: in vivo, 672 h
Rattus norvegicus [24] = experiment: Toxicity in female Wistar rat assessed as hemoglobin level at 30 mg/kg, po measured after 28 days (reference value: 11.90 +/- 0.19 g/dl); type: organism-based; set-up: dose 30 mg/kg, route oral; conditions: in vivo, 672 h
Rattus norvegicus [25] = experiment: Toxicity in female Wistar rat assessed as Glucose level at 3 mg/kg, po measured after 28 days (reference value: 69.94 +/- 2.30 mg/dl); type: organism-based; set-up: dose 3 mg/kg, route oral; conditions: in vivo, 672 h
Rattus norvegicus [26] = experiment: Toxicity in female Wistar rat assessed as creatinine level at 30 mg/kg, po measured after 28 days (reference value: 0.42 +/- 0.04 mg/dl); type: organism-based; set-up: dose 30 mg/kg, route oral; conditions: in vivo, 672 h
Rattus norvegicus [27] = experiment: Toxicity in female Wistar rat assessed as […] level at 3 mg/kg, po measured after 28 days (reference value: 172.38 +/- 7.18 U/L); type: organism-based; set-up: dose 3 mg/kg, route oral; conditions: in vivo, 672 h
Rattus norvegicus [28] = experiment: Toxicity in female Wistar rat assessed as SGOT level at 3 mg/kg, po measured after 28 days (reference value: 155.70 +/- 6.56 U/L); type: organism-based; set-up: dose 3 mg/kg, route oral; conditions: in vivo, 672 h
Rattus norvegicus [29] = experiment: Toxicity in female Wistar rat assessed as albumin level at 3 mg/kg, po measured after 28 days (reference value: 3.92 +/- 0.18 g.dl); type: organism-based; set-up: dose 3 mg/kg, route oral; conditions: in vivo, 672 h
Rattus norvegicus [30] = experiment: Toxicity in female Wistar rat assessed as albumin level at 30 mg/kg, po measured after 28 days (reference value: 3.92 +/- 0.18 g.dl); type: organism-based; set-up: dose 30 mg/kg, route oral; conditions: in vivo, 672 h
Rattus norvegicus [31] = experiment: Toxicity in female Wistar rat assessed as urea level at 3 mg/kg, po measured after 28 days (reference value: 33.05 +/- 2.02 mg/dl); type: organism-based; set-up: dose 3 mg/kg, route oral; conditions: in vivo, 672 h

CCO[C@@H](Cc1ccc(OCCc2nc(-c3ccc(C)s3)oc2C)cc1)C(=O)O
Activity (Mus musculus [1]): 61.9%
Activity (Mus musculus [2]): 65.6%
ED50 (Mus musculus [3]): 0.01 mg/kg
Activity (Mus musculus [4]): 6.6%
Activity (Mus musculus [5]): 52.7%
Activity (Mus musculus [6]): 58.2%
Activity (Mus musculus [7]): 62.2%
Ratio (Rattus norvegicus [8]): 0.412
Ratio (Rattus norvegicus [9]): 0.955
Ratio (Rattus norvegicus [10]): 0.223
Ratio (Rattus norvegicus [11]): 0.757
Ratio (Rattus norvegicus [12]): 0.36
Ratio (Rattus norvegicus [13]): 0.075
Ratio (Rattus norvegicus [14]): 7.075
Ratio (Rattus norvegicus [15]): 0.915
Ratio (Rattus norvegicus [16]): 0.26
Ratio (Rattus norvegicus [17]): 0.022
Ratio (Rattus norvegicus [18]): 0.947
Activity (Rattus norvegicus [19]): 33.99%
Activity (Rattus norvegicus [20]): 0.37 mg/dL
Activity (Rattus norvegicus [21]): 470.5 U/L
Activity (Rattus norvegicus [22]): 245.24 U/L
Activity (Rattus norvegicus [23]): 3.91 g/dL
Activity (Rattus norvegicus [24]): 11.83 g/dL
Activity (Rattus norvegicus [25]): 91.88 mg/dL
Activity (Rattus norvegicus [26]): 0.41 mg/dL
Activity (Rattus norvegicus [27]): 248.13 U/L
Activity (Rattus norvegicus [28]): 157.09 U/L
Activity (Rattus norvegicus [29]): 4.03 g/dL
Activity (Rattus norvegicus [30]): 4.12 g/dL
Activity (Rattus norvegicus [31]): 29.19 mg/dL
